Source: BigSolDB 2.1

COc1c(NS(=O)(=O)c2ccc(F)cc2)cc(-c2ccc3ncnc(N4CCOCC4)c3c2)cc1C(N)=O
solubility (mole fraction) (in acetone, 288.15 K): 0.000317
solubility (mole fraction) (in acetone, 293.15 K): 0.000317
solubility (mole fraction) (in acetone, 298.15 K): 0.000352
solubility (mole fraction) (in acetone, 303.15 K): 0.000419
solubility (mole fraction) (in acetone, 308.15 K): 0.000459
solubility (mole fraction) (in acetone, 313.15 K): 0.000526
solubility (mole fraction) (in acetone, 318.15 K): 0.000592
solubility (mole fraction) (in chloroform, 288.15 K): 0.000145
solubility (mole fraction) (in chloroform, 293.15 K): 0.000158
solubility (mole fraction) (in chloroform, 298.15 K): 0.000165
solubility (mole fraction) (in chloroform, 303.15 K): 0.000188
solubility (mole fraction) (in chloroform, 308.15 K): 0.000223
solubility (mole fraction) (in chloroform, 313.15 K): 0.000258
solubility (mole fraction) (in chloroform, 318.15 K): 0.000303
solubility (mole fraction) (in chloroform, 323.15 K): 0.00039
solubility (mole fraction) (in chloroform, 328.15 K): 0.000495
solubility (mole fraction) (in ethyl acetate, 288.15 K): 9.51e-05
solubility (mole fraction) (in ethyl acetate, 293.15 K): 0.000101
solubility (mole fraction) (in ethyl acetate, 298.15 K): 0.000114
solubility (mole fraction) (in ethyl acetate, 303.15 K): 0.000128
solubility (mole fraction) (in ethyl acetate, 308.15 K): 0.00015
solubility (mole fraction) (in ethyl acetate, 313.15 K): 0.000171
solubility (mole fraction) (in ethyl acetate, 318.15 K): 0.000196
solubility (mole fraction) (in ethyl acetate, 323.15 K): 0.00022
solubility (mole fraction) (in ethyl acetate, 328.15 K): 0.000239
solubility (mole fraction) (in methanol, 288.15 K): 0.000238
solubility (mole fraction) (in methanol, 293.15 K): 0.000301
solubility (mole fraction) (in methanol, 298.15 K): 0.00043
solubility (mole fraction) (in methanol, 303.15 K): 0.000428
solubility (mole fraction) (in methanol, 308.15 K): 0.000613
solubility (mole fraction) (in methanol, 313.15 K): 0.00078
solubility (mole fraction) (in methanol, 318.15 K): 0.00102
solubility (mole fraction) (in methanol, 323.15 K): 0.00105
solubility (mole fraction) (in methanol, 328.15 K): 0.00125
solubility (mole fraction) (in toluene, 288.15 K): 1.05e-05
solubility (mole fraction) (in toluene, 293.15 K): 1.05e-05
solubility (mole fraction) (in toluene, 298.15 K): 1.05e-05
solubility (mole fraction) (in toluene, 303.15 K): 1.13e-05
solubility (mole fraction) (in toluene, 308.15 K): 1.31e-05
solubility (mole fraction) (in toluene, 313.15 K): 1.53e-05
solubility (mole fraction) (in toluene, 318.15 K): 1.67e-05
solubility (mole fraction) (in toluene, 323.15 K): 1.83e-05
solubility (mole fraction) (in toluene, 328.15 K): 2.14e-05
solubility (mole fraction) (in water, 288.15 K): 5.21e-07
solubility (mole fraction) (in water, 293.15 K): 8.05e-07
solubility (mole fraction) (in water, 298.15 K): 9.14e-07
solubility (mole fraction) (in water, 303.15 K): 1.05e-06
solubility (mole fraction) (in water, 308.15 K): 1.16e-06
solubility (mole fraction) (in water, 313.15 K): 1.37e-06
solubility (mole fraction) (in water, 318.15 K): 1.5e-06
solubility (mole fraction) (in water, 323.15 K): 1.98e-06
solubility (mole fraction) (in water, 328.15 K): 2.44e-06

COc1c(NS(=O)(=O)c2ccc(F)cc2)cc(-c2ccc3nccc(N4CCOCC4)c3c2)cc1C(N)=O
solubility (mole fraction) (in acetone, 288.15 K): 0.000608
solubility (mole fraction) (in acetone, 293.15 K): 0.000638
solubility (mole fraction) (in acetone, 298.15 K): 0.000704
solubility (mole fraction) (in acetone, 303.15 K): 0.000817
solubility (mole fraction) (in acetone, 308.15 K): 0.000941
solubility (mole fraction) (in acetone, 313.15 K): 0.00102
solubility (mole fraction) (in acetone, 318.15 K): 0.00115
solubility (mole fraction) (in chloroform, 288.15 K): 5.21e-05
solubility (mole fraction) (in chloroform, 293.15 K): 5.44e-05
solubility (mole fraction) (in chloroform, 298.15 K): 5.86e-05
solubility (mole fraction) (in chloroform, 303.15 K): 6.66e-05
solubility (mole fraction) (in chloroform, 308.15 K): 7.72e-05
solubility (mole fraction) (in chloroform, 313.15 K): 9.58e-05
solubility (mole fraction) (in chloroform, 318.15 K): 0.000121
solubility (mole fraction) (in chloroform, 323.15 K): 0.000149
solubility (mole fraction) (in chloroform, 328.15 K): 0.000188
solubility (mole fraction) (in ethyl acetate, 288.15 K): 9.85e-05
solubility (mole fraction) (in ethyl acetate, 293.15 K): 0.000115
solubility (mole fraction) (in ethyl acetate, 298.15 K): 0.000127
solubility (mole fraction) (in ethyl acetate, 303.15 K): 0.000138
solubility (mole fraction) (in ethyl acetate, 308.15 K): 0.00016
solubility (mole fraction) (in ethyl acetate, 313.15 K): 0.000182
solubility (mole fraction) (in ethyl acetate, 318.15 K): 0.000187
solubility (mole fraction) (in ethyl acetate, 323.15 K): 0.000183
solubility (mole fraction) (in ethyl acetate, 328.15 K): 0.000183
solubility (mole fraction) (in methanol, 288.15 K): 0.000259
solubility (mole fraction) (in methanol, 293.15 K): 0.000298
solubility (mole fraction) (in methanol, 298.15 K): 0.000338
solubility (mole fraction) (in methanol, 303.15 K): 0.000398
solubility (mole fraction) (in methanol, 308.15 K): 0.000473
solubility (mole fraction) (in methanol, 313.15 K): 0.000518
solubility (mole fraction) (in methanol, 318.15 K): 0.000666
solubility (mole fraction) (in methanol, 323.15 K): 0.000829
solubility (mole fraction) (in methanol, 328.15 K): 0.000977
solubility (mole fraction) (in toluene, 288.15 K): 5.82e-06
solubility (mole fraction) (in toluene, 293.15 K): 6.02e-06
solubility (mole fraction) (in toluene, 298.15 K): 6.59e-06
solubility (mole fraction) (in toluene, 303.15 K): 7.29e-06
solubility (mole fraction) (in toluene, 308.15 K): 7.86e-06
solubility (mole fraction) (in toluene, 313.15 K): 9.04e-06
solubility (mole fraction) (in toluene, 318.15 K): 1.03e-05
solubility (mole fraction) (in toluene, 323.15 K): 1.23e-05
solubility (mole fraction) (in toluene, 328.15 K): 1.4e-05
solubility (mole fraction) (in water, 288.15 K): 3.54e-07
solubility (mole fraction) (in water, 293.15 K): 5.68e-07
solubility (mole fraction) (in water, 298.15 K): 7.36e-07
solubility (mole fraction) (in water, 303.15 K): 8.18e-07
solubility (mole fraction) (in water, 308.15 K): 9.22e-07
solubility (mole fraction) (in water, 313.15 K): 1.08e-06
solubility (mole fraction) (in water, 318.15 K): 1.28e-06
solubility (mole fraction) (in water, 323.15 K): 1.47e-06
solubility (mole fraction) (in water, 328.15 K): 1.75e-06

COc1c(NS(=O)(=O)c2ccc(C)cc2)cc(-c2ccc3ncnc(N4CCOCC4)c3c2)cc1C(N)=O
solubility (mole fraction) (in acetone, 288.15 K): 0.000635
solubility (mole fraction) (in acetone, 293.15 K): 0.000707
solubility (mole fraction) (in acetone, 298.15 K): 0.000798
solubility (mole fraction) (in acetone, 303.15 K): 0.001
solubility (mole fraction) (in acetone, 308.15 K): 0.00115
solubility (mole fraction) (in acetone, 313.15 K): 0.00141
solubility (mole fraction) (in acetone, 318.15 K): 0.00185
solubility (mole fraction) (in chloroform, 288.15 K): 0.0027
solubility (mole fraction) (in chloroform, 293.15 K): 0.00314
solubility (mole fraction) (in chloroform, 298.15 K): 0.00346
solubility (mole fraction) (in chloroform, 303.15 K): 0.00398
solubility (mole fraction) (in chloroform, 308.15 K): 0.00466
solubility (mole fraction) (in chloroform, 313.15 K): 0.00547
solubility (mole fraction) (in chloroform, 318.15 K): 0.00637
solubility (mole fraction) (in chloroform, 323.15 K): 0.00717
solubility (mole fraction) (in chloroform, 328.15 K): 0.00767
solubility (mole fraction) (in ethyl acetate, 288.15 K): 0.000286
solubility (mole fraction) (in ethyl acetate, 293.15 K): 0.000294
solubility (mole fraction) (in ethyl acetate, 298.15 K): 0.000302
solubility (mole fraction) (in ethyl acetate, 303.15 K): 0.000329
solubility (mole fraction) (in ethyl acetate, 308.15 K): 0.000357
solubility (mole fraction) (in ethyl acetate, 313.15 K): 0.000412
solubility (mole fraction) (in ethyl acetate, 318.15 K): 0.00045
solubility (mole fraction) (in ethyl acetate, 323.15 K): 0.000535
solubility (mole fraction) (in ethyl acetate, 328.15 K): 0.000656
solubility (mole fraction) (in methanol, 288.15 K): 0.000832
solubility (mole fraction) (in methanol, 293.15 K): 0.000873
solubility (mole fraction) (in methanol, 298.15 K): 0.000919
solubility (mole fraction) (in methanol, 303.15 K): 0.00105
solubility (mole fraction) (in methanol, 308.15 K): 0.00123
solubility (mole fraction) (in methanol, 313.15 K): 0.00151
solubility (mole fraction) (in methanol, 318.15 K): 0.00183
solubility (mole fraction) (in methanol, 323.15 K): 0.00217
solubility (mole fraction) (in methanol, 328.15 K): 0.00267
solubility (mole fraction) (in toluene, 288.15 K): 2.41e-05
solubility (mole fraction) (in toluene, 293.15 K): 2.9e-05
solubility (mole fraction) (in toluene, 298.15 K): 3.32e-05
solubility (mole fraction) (in toluene, 303.15 K): 3.98e-05
solubility (mole fraction) (in toluene, 308.15 K): 4.9e-05
solubility (mole fraction) (in toluene, 313.15 K): 5.89e-05
solubility (mole fraction) (in toluene, 318.15 K): 7.91e-05
solubility (mole fraction) (in toluene, 323.15 K): 0.000104
solubility (mole fraction) (in toluene, 328.15 K): 0.00013
solubility (mole fraction) (in water, 288.15 K): 8.31e-07
solubility (mole fraction) (in water, 293.15 K): 1.19e-06
solubility (mole fraction) (in water, 298.15 K): 1.62e-06
solubility (mole fraction) (in water, 303.15 K): 2.07e-06
solubility (mole fraction) (in water, 308.15 K): 2.53e-06
solubility (mole fraction) (in water, 313.15 K): 2.91e-06
solubility (mole fraction) (in water, 318.15 K): 3.2e-06
solubility (mole fraction) (in water, 323.15 K): 3.47e-06
solubility (mole fraction) (in water, 328.15 K): 3.75e-06
